Source: US4650788A, “Novel peptides having an immunostimulating action, processes for their preparation and their use” (Hoechst Aktiengesellschaft, priority 1983, dated 1987)
Square brackets hold non-standard residues; d marks the D form. Peptide text beside a SMILES is read from it.

Experiments:
[1] = system: spleen cells of mice (B lymphocytes), in vitro immunization with sheep erythrocytes; experiment: plaque-forming cell test (PFC test); format: cell-based; settings: Dosage 100 ng/substance/1 ml of cell culture; mouse spleen cell culture, 5 days; untreated control 221 ± 30
Description: […]. The in vitro immunization is effected with 5×10^7 sheep erythrocytes/ml. The test cell cultures are incubated daily with the corresponding dose of the test substance.
After a running time of 5 days, the cells are centrifuged off and washed with medium RPMI 1640 and the direct PFC test is carried out. For this, the cells are mixed with a 10% sheep erythrocyte suspension in an agarose solution and the mixture is poured onto a flat surface. In the layer of gel formed, the stimulated lymphocytes release antibodies during subsequent incubation, and these diffuse into the environment and attach themselves to the sheep erythrocytes therein. After addition of guinea pig complement, the red blood cells lyse. Light-colored round spots which can be seen with the naked eye form in the reddish-brown gel, i.e. the hemolysis areolas of the plaques. An antibody-producing cell is found in the center of such hemolysis areolas. The number of lymphoid cells which form specific immunoglobulins can consequently be equated with the numbers of plaques found.

lymphocytes (T cells) = experiment: PHA stimulation test (lymphocyte transformation test); format: cell-based; settings: Dosage 100 ng/substance/1 ml of cell culture; 10 μg of PHA/1 ml, 72 hours; untreated control 1.00
Text: In the PHA stimulation test (PHA=phytohemagglutinin) or the lymphocyte transformation test, conclusions as to the number of mature, i.e. stimulatable, lymphocytes are drawn not via investigation of the surface antigens but by the function test for ability to be stimulated by the plant lectin PHA. The lymphocytes (T cells) are stimulated to […] transformation by the lectin, in the same way as by bacterial or viral antigens. This leads to proliferation, either directly or by the release of lymphokins. The incorporation of the radiolabeled thymidine within a certain time is then a measure of the number of stimulated cells. Only the mature or immunologically potent T cells are stimulated. The influence of a substance on lymphocyte maturation can therefore be monitored with this test. However, the stimulation must be sub-optimum, since other sub-populations of lymphocytes are also stimulated at higher concentrations and the effect can no longer be observed. The peptides to be investigated have been added to the culture medium in various concentrations. They are present throughout the entire duration of the test (up to 72 hours).

| Structure (SMILES) | PFC/10^6 cells [1] [PFC/10^6 cells] | PHA stimulation index (lymphocytes (T cells)) |
| --- | --- | --- |
| CC(C)[C@H]1NC(=O)[C@H](CC(=O)O)NC(=O)[C@H](CCCCN)NC(=O)[C@H](CCCNC(=N)N)NC(=O)[C@H](Cc2c[nH]c3ccccc23)NC1=O [cyclo-(Arg--Lys--Asp--D-Val--Trp)] (cyclo(D[dV]WRK)) | 312 ± 58 |  |
| CC(C)[C@H]1NC(=O)[C@H](CC(=O)O)NC(=O)[C@H](CCCCN)NC(=O)[C@H](CCCNC(=N)N)NC(=O)[C@H](Cc2ccc(O)cc2)NC1=O [cyclo-(Arg--Lys--Asp--D-Val--Tyr), cyclo-(Arg-Lys-Asp-D-Val-Tyr).2HOAc] (cyclo(D[dV]YRK)) | 401 ± 64 | 1.69 |
| CC(C)[C@H]1NC(=O)[C@H](CCC(=O)O)NC(=O)[C@H](CCCCN)NC(=O)[C@H](CCCNC(=N)N)NC(=O)[C@H](Cc2c[nH]c3ccccc23)NC1=O [cyclo-(Arg--Lys--Glu--D-Val--Trp)] (cyclo(E[dV]WRK)) | 369 ± 54 | 1.25 |
| CC(C)[C@H]1NC(=O)[C@H](CCC(=O)O)NC(=O)[C@H](CCCCN)NC(=O)[C@H](CCCNC(=N)N)NC(=O)[C@H](Cc2ccc(O)cc2)NC1=O [cyclo-(Arg--Lys--Glu--D-Val--Tyr), cyclo-(Arg-Lys-Glu-D-Val-Tyr).2 HOAc] (cyclo(E[dV]YRK)) | 687 ± 73 | 1.92 |
| CC(C)[C@@H]1NC(=O)[C@H](CCC(=O)O)NC(=O)[C@H](CCCCN)NC(=O)[C@H](CCCNC(=N)N)NC(=O)[C@@H](Cc2ccccc2)NC1=O [cyclo-(Arg--Lys--Glu--Val--D-Phe)] (cyclo(EV[dF]RK)) | 250 ± 31 |  |
| CC(C)[C@@H]1NC(=O)[C@H](CC(=O)O)NC(=O)[C@H](CCCNC(=N)N)NC(=O)[C@@H](CCCCN)NC(=O)[C@H](Cc2ccc(O)cc2)NC1=O [cyclo-(D-Lys--Arg--Asp--Val--Tyr)] (cyclo(DVY[dK]R)) | 341 ± 43 |  |
| CC(C)[C@@H]1NC(=O)[C@H](CCC(=O)O)NC(=O)[C@H](CCCNC(=N)N)NC(=O)[C@@H](CCCCN)NC(=O)[C@H](Cc2ccc(O)cc2)NC1=O [cyclo-(D-Lys--Arg--Glu--Val--Tyr)] (cyclo(EVY[dK]R)) | 317 ± 41 | 1.15 |
